Test results: patent publication US12448383B2, “Compounds and methods for treatment of viral infections” (priority 2022, dated 2025)
Like-named read-outs stand apart in the source and are kept apart here.

How the values were obtained:
[1] = Stability in pH2 buffered solution; format: physicochemical; settings: pH2 phosphate buffer, 40° C., 24 h; Table N2
Protocol: (§1) Example N: Stability in p112 and p117 Buffered Solutions
(§2) The aqueous stability of compounds over a time of 24 hours at 40° C. was assessed. Stability was determined in 50 mM phosphate buffered solutions at both pH2 and pH7, with 150 mM NaCl (to achieve isotonicity). 3-5 mg of solid compounds were added to 7 mL scintillation vials. Acetonitrile was added to each vial to produce a 1 mg/mL stock solution. Stock solutions were diluted to 50 μg/mL in either pH2 or pH7 phosphate buffer, to a volume of 1 mL. For each compound and pH condition, 50 μg/mL samples were prepped in duplicate. One sample was placed on the UPLC tray at 40° C. for analysis, and the second sample was placed in a 40° C. oven for storage. Sample preps for each compound were offset by 40 minutes to account for run time on UPLC.
(§3) Concentration timepoints were measured at 0, 3, 6, 9, and 12 hrs. After 24 hrs, samples in the 40° C. oven were removed and analyzed by UPLC.
(§4) In FIG. 2, % AN stands for % area normalized. That is, % AN is the area of the compound peak relative to the sum of areas of all the peaks in the UPLC chromatogram. For example, if there were two peaks, compound peak with an area of 9 and another peak with an area of 1, then the % AN of the compound peak would be 90%.

[2] = test system: SARS Coronavirus 2 recombinant with NanoLuc (SARS-CoV2-NLuc) in A549-hACE2 cells; experiment: organism not typed; format: cell-based
[3] = GI S9 stability - no PMSF; format: in vitro ADME; parameters: GIS9-HUMAN-NoPMSF T1/2: unit: min; settings: human intestinal S9, PMSF-free; for half-life at 2 µM: pH 7.4, read-out: GIS9-HUMAN-NoPMSF T1/2
Procedure, shortened: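 Stability was assessed by Q-Exactive LC-MS peak area ratios against internal standard, tracking loss of parent and appearance of nucleoside metabolite Reference Compound A. Incubations used 2 μM compound in 1 mg/mL intestinal S9 without PMSF (PBS, pH 7.4), with six samples taken over 120 min.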

[4] = test system: Caco-2 cells (clone C2BBe1); experiment: CACO-2 permeability; format: in vitro ADME; parameters: unit not given here; settings: for DM Caco2 A to B: apical to basolateral, donor pH 6.5, receiver pH 7.4; for DM Caco2 B to A: basolateral to apical
Procedure, shortened: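 A-to-B and B-to-A flux measured by LC-MS/MS from receiver samples taken at 1 and 2 h, with donor sampled at 0 and 2 h and recovery checked. Buffers: pH 6.5 HBSS with 200 μM BNPP on the donor side, pH 7.4 with BSA on the receiver side. Monolayers were 21-day cultures, TEER-verified, in duplicate wells.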

[5] = CC50 MT4 cytotoxicity (Cell-Titer Glo); format: cell-based; settings: human
Procedure, shortened: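 CC50 values are the concentrations cutting viability by 50%, fitted by non-linear regression against untreated (100%) and 2 μM puromycin (0%) controls. Cell-Titer Glo luminescence measured after 4-5 days at 37° C exposure of uninfected MT-4 and HEp-2 cells to 3-fold dilutions spanning 15 nM to 100,000 nM.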

[6] = test system: Respiratory syncytial virus recombinant with luciferase (RSV-Luc5) in Normal Human Bronchial Epithelial (NHBE) cells; experiment: microbe, parasite or virus in culture; format: cell-based
[7] = Stability in pH7 buffered solution; format: physicochemical; settings: pH7 phosphate buffer, 40° C., Table N2
Protocol: as §1, §2, §3, §4

[8] = Thermodynamic solubility in pH7 buffered solution; settings: 50 mM phosphate buffer pH7, 150 mM NaCl, ambient temperature, 24 hours
Protocol: Solubility was determined at ambient temperature in a 50 mM phosphate buffered pH7 solution with 150 mM NaCl (to achieve isotonicity). Solids were added to the buffered solution in 1.5-mL Eppendorf tubes, vortexed for 1 minute, then agitated for 24 hours in an Eppendorf ThermoMixer C. […] Supernatants were diluted to a volume of 1 mL with 30:70 v/v acetonitrile:water. All diluted supernatants were analyzed by UPLC using a Waters Acquity UPLC with a PDA UV detector.

Plasma stability = format: in vitro ADME; parameters: unit not given here; settings: 37° C., 2 μM substrate
Procedure, shortened: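 LC-MS (Q-Exactive, 5 ppm tolerance, 0.1% formic acid water/acetonitrile gradient) quantified compound in quenched aliquots. Aliquots were taken at 0.05, 0.5, 1, 2, 3 and 4 hr and quenched with internal-standard solution, and supernatants were diluted with water after centrifugation.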

[9] = test system: Respiratory syncytial virus recombinant with luciferase (RSV-Luc5) in HEp-2 cells; experiment: microbe, parasite or virus in culture; format: cell-based; settings: human respiratory syncytial virus, HEp-2, 72 h, read-out: RSV Hep2 EC50

Row | Compound | pH 2 Stability 24 h % AN [1] | EC50 ([2]; 48 h, read-out: SARS-CoV2 EC50) | half-life at 2 µM [3] | DM Caco2 A to B [4] | DM Caco2 B to A [4] | CC50 [5] | EC50 ([6]; 72 h, read-out: RSV NHBE EC50) | pH 7 Stability 24 h % AN [7] | Sol pH 7 [8] | STA Human Plasma 37 (Plasma stability) | EC50 [9] | GIS9-HUMAN-NoPMSF T1/2 [3] | EC50 ([2]; A549, read-out: EC50 SARS CoV2 NanoLuc A549 384) | EC50 ([6]; read-out: EC50 RSVFluc-NHBE 384 V2) | logD (physchem)
1 | CC(C)OC(=O)Nc1ncnn2c([C@]3(C#N)O[C@H](COC(=O)OC(C)(C)C)[C@@H](O)[C@H]3O)ccc12 [Compound 63, isopropyl (7-((2R,3R,4S,5R)-5-(((tert-butoxycarbonyl)oxy)methyl)-2-cyano-3,4-dihydroxytetrahydrofuran-2-yl)pyrrolo[2,1-f][1,2,4]triazin-4-yl)carbamate] | 3 % AN | > 50 µM | 181 min | 1.18 | 12.46 | > 50 µM | 41.6 µM | 0 % AN | 0.82 | 1584 | – | – | – | – | –
2 | CC(C)OC(=O)OC[C@H]1O[C@@](C#N)(c2ccc3c(N)ncnn23)[C@@H]2OC(=O)O[C@@H]21 [Compound 66, ((3aR,4R,6R,6aR)-6-(4-aminopyrrolo[2,1-f][1,2,4]triazin-7-yl)-6-cyano-2-oxotetrahydrofuro[3,4-d][1,3]dioxol-4-yl)methyl isopropyl carbonate] | 2 % AN | 3.21 µM | 0.491 min | – | – | > 50 µM | 0.499 µM | 0 % AN | – | 24.2 | 0.847 µM | – | – | – | –
3 | CC(C)(OC(=O)OC[C@H]1O[C@@](C#N)(c2ccc3c(N)ncnn23)[C@H](O)[C@@H]1O)C(F)F [Compound 76, ((2R,3S,4R,5R)-5-(4-aminopyrrolo[2,1-f][1,2,4]triazin-7-yl)-5-cyano-3,4-dihydroxytetrahydrofuran-2-yl)methyl (1,1-difluoro-2-methylpropan-2-yl) carbonate] | 92 % AN | > 50 µM | 38.9 min | 2.13 | 12.17 | > 50 µM | 3.4 µM | 91 % AN | 0.37 | 1584 | – | – | – | – | –
4 | CCOC(=O)C(C)(C)OC(=O)OC[C@H]1O[C@@](C#N)(c2ccc3c(N)ncnn23)[C@H](O)[C@@H]1O [Compound 77, Ethyl 2-(((((2R,3S,4R,5R)-5-(4-aminopyrrolo[2,1-f][1,2,4]triazin-7-yl)-5-cyano-3,4-dihydroxytetrahydrofuran-2-yl)methoxy)carbonyl)oxy)-2-methyl propanoate] | 98 % AN | > 50 µM | 792 min | 0.27 | 5.58 | > 50 µM | ≥ 50 µM | 95 % AN | 4.64 | 383.67 | – | – | – | – | –
5 | COC(=O)[C@H]([C@@H](C)OC(=O)OC[C@H]1O[C@@](C#N)(c2ccc3c(N)ncnn23)[C@H](O)[C@@H]1O)N(C)C [Compound 78, methyl O-((((2R,3S,4R,5R)-5-(4-aminopyrrolo[2,1-f][1,2,4]triazin-7-yl)-5-cyano-3,4-dihydroxytetrahydrofuran-2-yl)methoxy)carbonyl)-N,N-dimethyl-L-threoninate] | 90 % AN | 3.58 µM | 72.1 min | 0.2 | 4.2 | > 50 µM | 3.6 µM | 0 % AN | 0.89 | 336.23 | – | – | – | – | –
6 | COCC(C)(C)OC(=O)OC[C@H]1O[C@@](C#N)(c2ccc3c(N)ncnn23)[C@H](O)[C@@H]1O [Compound 96, ((2R,3S,4R,5R)-5-(4-aminopyrrolo[2,1-f][1,2,4]triazin-7-yl)-5-cyano-3,4-dihydroxytetrahydrofuran-2-yl)methyl (1-methoxy-2-methylpropan-2-yl) carbonate] | 96 % AN | – | – | 0.09 | 4.05 | > 50 µM | > 50 µM | 95 % AN | 1.25 | 1584 | – | 789 | – | – | –
7 | CCOC(=O)[C@H](C)OC(=O)OC[C@H]1O[C@@](C#N)(c2ccc3c(N)ncnn23)[C@H](O)[C@@H]1O [Compound 97, ethyl (S)-2-(((((2R,3S,4R,5R)-5-(4-aminopyrrolo[2,1-f][1,2,4]triazin-7-yl)-5-cyano-3,4-dihydroxytetrahydrofuran-2-yl)methoxy)carbonyl)oxy)propanoate] | 98 % AN | – | 3.65 min | 0.04 | 2.15 | – | 6.16 µM | 85 % AN | 6.02 | 6.669 | – | – | – | – | –
8 | CC(C)OC(=O)[C@H]([C@@H](C)OC(=O)OC[C@H]1O[C@@](C#N)(c2ccc3c(N)ncnn23)[C@H](O)[C@@H]1O)N(C)C [Compound 145, isopropyl (2S,3R)-3-[[(2R,3S,4R,5R)-5-(4-aminopyrrolo[2,1-f][1,2,4]triazin-7-yl)-5-cyano-3,4-dihydroxy-tetrahydrofuran-2-yl]methoxycarbonyloxy]-2-(dimethylamino)butanoate] | 93 % AN | – | 32.8 min | 0.2 | 8.475 | > 50 µM | – | 0 % AN | – | 299.49 | – | – | 3.48 µM | 3.15 µM | 1.85
